For one data set, the target named is T1, αvβ3 integrin receptors (Homo sapiens, UniProt P05106+P06756).
T1 construct: from tissue; host or cells: human carotid endarterectomy specimens (frozen sections)
Briefly: 18F-fluciclatide autoradiography of carotid endarterectomy sections. Format: binding. The protocol:
Carotid endarterectomy specimens (online supplementary data) were fresh frozen and sectioned in cryosection medium. Both atheromatous and non-atheromatous segments were fixed, stained with H&E and examined by immunohistochemistry for smooth muscle actin, CD31, CD68 and αvβ3 integrin receptor expression before digital image capture (Axioscan .Z1, Zeiss, UK). Image analysis was performed on ImageJ32 software (National Institutes of Health, Bethesda, Maryland, USA). Staining was expressed as a percentage of the total plaque area and with an object size set threshold applied at 20×10 pixels, to limit counting to cell-sized objects. The density of cell staining in the endarterectomy tissue was expressed as cells per mm^2.[18]
Autoradiography was performed to identify the precise localisation of 18F-fluciclatide binding in atherosclerotic tissue. Carotid sections were bathed in a solution of 18F-fluciclatide (1 kBq/mL) for 60 min and rinsed with phosphate buffer solution. To rule out non-specific radiotracer uptake, an un-labelled highly concentrated solution of fluciclatide was added to bind competitively with the αvβ3 integrin receptors. 18F-Fluciclatide binding was imaged using a FujiFilm FLA-5100 Fluorescent Image Analyser (Raytek Scientific, Sheffield, UK). […]
antibody, clone LM609 (Millipore) for 30 min at room temperature. After washing, the sections were incubated with Envision Flex (DAKO, K5007) for 30 min at room temperature, followed by incubation with diaminobenzamine (Sigma) for 10 min. The slides were finally counterstained with hematoxylin and digitally imaged (Axioscan.Z1, Zeiss, UK).
Clinical PET systems have limited resolution. To gain more detailed information about the precise localization of 18F-fluciclatide binding in atherosclerotic tissue, we undertook autoradiography. The 20 μm frozen sections adjacent to those used for immunohistochemical analysis were warmed to room-temperature and bathed in a solution of 18F-fluciclatide at a concentration close to in vivo imaging concentrations (1 kBq/mL) for 60 minutes and then rinsed with phosphate buffer solution. An unlabeled highly concentrated solution of fluciclatide was added to selected slides in order to competitively bind to αvβ3 to assess for non-specific tracer uptake. A freshly blanked phosphor screen was then placed over the slides and an overnight exposure undertaken. The screen was read using a FujiFilm FLA-5100 Fluorescent Image Analyser (Raytek Scientific Limited, Sheffield, UK). Sections were then manually registered and examined for co-localization with histological markers of atherosclerotic disease

On the set-up of data set [1]: species or system human. Conditions: in vivo. The text has this: A total of 46 subjects underwent PET imaging with CT angiography (age 66±10 years, 74% male; table 1) following injection of 229 (IQR 217–237) […] 18F-fluciclatide. Of the 46 subjects recruited, 19 had suffered a recent MI (unstable cohort), and 27 had imaging evidence of aortic atherosclerosis on CT but no recent cardiovascular events (stable cohort: 6 with stable angina and 21 with subclinical disease who were asymptomatic with no prior cardiovascular events). […] The groups were well matched for gender (p=0.97) and body mass index (p=0.39), and were both characterised by high prevalence of atherosclerotic risk factors, with more smokers in the unstable group (p<0.001) and more patients with hypertension in the stable group (p=0.02).

The target in data set [2] is aortic atheroma (αvβ3 integrin) (Homo sapiens, UniProt P05106+P06756).
Protocol: (§1) All patients in the imaging cohort underwent PET-CT imaging of the thorax with a hybrid scanner (Biograph mCT, Siemens Medical Systems, Erlangen, Germany) at the Clinical Research Imaging Centre, University of Edinburgh. Subjects were administered a target dose of 230 MBq 18F-fluciclatide. An attenuation correction CT scan (non-enhanced 120 kV and 50 mA, 3 mm slices) was performed prior to PET acquisition. To define tracer pharmacodynamics and the optimum timing of scanning, dynamic PET imaging of the thorax was performed in the initial 20 patients in three-dimensional (3-D) mode using a single bed position for 70 min.
Kinetic analysis was performed on the dynamic PET studies to investigate the pharmacodynamics of 18F-fluciclatide uptake within atheroma. […] In all patients, static electrocardiogram-gated PET images were reconstructed in diastole (40–70 min postinjection, 50%–75% of the R-R interval, Ultra-HD, 2 iterations, 21 subsets, zoom ×2, 200 pixels). Images were analysed by experienced observers blinded to the demographic data (WJ, AV) using an OsiriX workstation (OsiriX V.6.0 64-bit; OsiriX Imaging Software, Geneva, Switzerland). PET images were fused with the attenuation correction CT, and regions of interest drawn around the thoracic aorta on serial axial slices just beyond the discernible adventitial border. Aortic uptake was assessed in three regions: the ascending thoracic aorta (from the level of mid-right pulmonary artery up to the last slice where the aorta maintained its circular cross-sectional appearance), the descending thoracic aorta (the region extending from the tip of the diaphragm up to the last circular slice) and the aortic arch (the region of the aorta connecting the ascending and descending aorta). Within these regions, mean and maximum tracer activities were measured using standard uptake values (SUV; the decay corrected tissue concentration of the tracer divided by the injected dose per body weight, kBq/mL) and corrected for mean radiotracer blood pool activity to provide a mean of the TBRmax (mean TBRmax).[5 19 20] […]
The target of data set [3] is αvβ3 integrin in thoracic aortic atheroma (Homo sapiens, UniProt P05106+P06756).
Protocol: as §1
Kinetic analysis was performed on the dynamic PET studies to investigate the pharmacodynamics of 18F-fluciclatide uptake within atheroma. […] In all patients, static electrocardiogram-gated PET images were reconstructed in diastole (40–70 min postinjection, 50%–75% of the R-R interval, Ultra-HD, 2 iterations, 21 subsets, zoom ×2, 200 pixels). […] PET images were fused with the attenuation correction CT, and regions of interest drawn around the thoracic aorta on serial axial slices just beyond the discernible adventitial border. Aortic uptake was assessed in three regions: the ascending thoracic aorta (from the level of mid-right pulmonary artery up to the last slice where the aorta maintained its circular cross-sectional appearance), the descending thoracic aorta (the region extending from the tip of the diaphragm up to the last circular slice) and the aortic arch (the region of the aorta connecting the ascending and descending aorta). Within these regions, mean and maximum tracer activities were measured using standard uptake values (SUV; the decay corrected tissue concentration of the tracer divided by the injected dose per body weight, kBq/mL) and corrected for mean radiotracer blood pool activity to provide a mean of the TBRmax (mean TBRmax).[5 19 20] […] In a substudy of 10 randomly selected subjects, images were assessed independently by two experienced observers and the interobserver reproducibility of 18F-fluciclatide SUV and TBR measurements assessed.
Continuous data were tested for normality visually and with the D’Agostino-Pearson omnibus test. Continuous data were presented as median (IQR) and compared using Pearson’s or Spearman’s correlation or Wilcoxon signed-rank test as appropriate.

The values below come from paper PMC6929706, “In vivo alpha-V beta-3 integrin expression in human aortic atherosclerosis” (Heart, 2019).

Read-outs that look alike come from different tables or passages of the source.

Chain of αvβ3 integrin in thoracic aortic atheroma (P06756 31-889 limits assumed): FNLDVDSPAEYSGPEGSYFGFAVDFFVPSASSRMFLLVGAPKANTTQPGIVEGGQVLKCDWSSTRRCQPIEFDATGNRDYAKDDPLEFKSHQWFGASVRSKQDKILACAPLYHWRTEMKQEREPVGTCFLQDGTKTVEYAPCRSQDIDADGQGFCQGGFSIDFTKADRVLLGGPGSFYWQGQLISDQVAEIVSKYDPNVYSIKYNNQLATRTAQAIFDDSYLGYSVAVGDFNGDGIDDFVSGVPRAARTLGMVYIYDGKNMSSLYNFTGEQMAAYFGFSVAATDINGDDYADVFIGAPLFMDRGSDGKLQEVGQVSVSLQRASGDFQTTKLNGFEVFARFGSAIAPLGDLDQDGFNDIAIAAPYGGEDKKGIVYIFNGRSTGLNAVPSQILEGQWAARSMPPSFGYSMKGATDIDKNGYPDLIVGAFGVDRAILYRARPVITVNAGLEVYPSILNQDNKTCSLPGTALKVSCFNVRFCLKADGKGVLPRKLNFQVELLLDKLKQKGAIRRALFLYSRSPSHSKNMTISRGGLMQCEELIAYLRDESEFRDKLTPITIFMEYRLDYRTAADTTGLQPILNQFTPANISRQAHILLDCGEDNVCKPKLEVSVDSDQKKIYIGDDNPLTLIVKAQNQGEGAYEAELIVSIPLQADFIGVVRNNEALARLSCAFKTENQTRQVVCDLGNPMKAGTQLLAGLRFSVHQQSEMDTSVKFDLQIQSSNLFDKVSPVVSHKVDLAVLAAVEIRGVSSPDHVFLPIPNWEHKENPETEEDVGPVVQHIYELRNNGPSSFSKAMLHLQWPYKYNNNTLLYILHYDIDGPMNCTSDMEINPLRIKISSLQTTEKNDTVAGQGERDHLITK
Chain of αvβ3 integrin in thoracic aortic atheroma (P06756 891-1048 partner limits assumed): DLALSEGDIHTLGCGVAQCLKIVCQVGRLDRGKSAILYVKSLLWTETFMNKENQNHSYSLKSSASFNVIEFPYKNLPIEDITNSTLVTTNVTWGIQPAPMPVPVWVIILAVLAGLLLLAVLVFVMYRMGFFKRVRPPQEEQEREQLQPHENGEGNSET
Chain of αvβ3 integrin in thoracic aortic atheroma (P05106 27-788): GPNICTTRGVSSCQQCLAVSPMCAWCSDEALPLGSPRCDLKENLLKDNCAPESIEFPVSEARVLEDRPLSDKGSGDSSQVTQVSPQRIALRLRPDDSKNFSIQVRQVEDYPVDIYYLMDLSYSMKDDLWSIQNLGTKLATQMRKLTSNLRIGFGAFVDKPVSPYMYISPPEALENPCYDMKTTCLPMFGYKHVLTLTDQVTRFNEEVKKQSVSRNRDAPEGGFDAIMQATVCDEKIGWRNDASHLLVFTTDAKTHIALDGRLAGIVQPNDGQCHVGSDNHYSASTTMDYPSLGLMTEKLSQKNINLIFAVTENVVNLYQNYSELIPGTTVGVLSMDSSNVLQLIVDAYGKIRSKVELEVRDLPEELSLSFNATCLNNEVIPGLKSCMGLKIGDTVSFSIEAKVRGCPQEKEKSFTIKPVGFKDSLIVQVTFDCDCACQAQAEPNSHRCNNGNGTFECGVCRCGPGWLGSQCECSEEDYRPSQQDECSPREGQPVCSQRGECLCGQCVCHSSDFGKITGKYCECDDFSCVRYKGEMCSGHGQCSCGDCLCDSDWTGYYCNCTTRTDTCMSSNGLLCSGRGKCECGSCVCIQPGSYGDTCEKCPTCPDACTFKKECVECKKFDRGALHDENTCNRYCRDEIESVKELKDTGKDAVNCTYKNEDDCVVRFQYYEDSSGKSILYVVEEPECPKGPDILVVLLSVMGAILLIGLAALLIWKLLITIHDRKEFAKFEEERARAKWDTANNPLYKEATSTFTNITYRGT
Chain of aortic atheroma (αvβ3 integrin) (P06756 31-889 limits assumed): as the sequence (P06756 31-889 limits assumed) above
Chain of aortic atheroma (αvβ3 integrin) (P06756 891-1048 partner limits assumed): as the sequence (P06756 891-1048 partner limits assumed) above
Chain of aortic atheroma (αvβ3 integrin) (P05106 27-788): as the sequence (P05106 27-788) above
T1 sequence (P06756 31-889 limits assumed): as the sequence (P06756 31-889 limits assumed) above
T1 sequence (P06756 891-1048 partner limits assumed): as the sequence (P06756 891-1048 partner limits assumed) above
T1 sequence (P05106 27-788): as the sequence (P05106 27-788) above

In the case of 18F-fluciclatide, the “Non-specific binding on autoradiography” value on αvβ3 integrin receptors (carotid atheroma, ex vivo) was “no evidence of non-specific binding”. Moreover, the “18F-fluciclatide uptake in regions of carotid endarterectomy specimen without visible atheroma” value on αvβ3 integrin receptors (ex vivo autoradiography, 1 kBq/mL, 60 min) is recorded as “did not demonstrate 18F-fluciclatide uptake”. The “18F-fluciclatide binding in carotid plaque on autoradiography” value on αvβ3 integrin receptors (ex vivo carotid sections bathed in 1 kBq/mL for 60 min, atheromatous regions) is reported as “focal 18F-fluciclatide binding in regions of advanced atherosclerosis”. In data set [1], the “Adverse events following administration” value is recorded as “No adverse events were reported” and the “Average total radiation dose per participant” value is given as 15 mSv. The “Nature of ligand-receptor binding by Patlak modelling” value in data set [2] (2-tissue irreversible Patlak model, t* 20 min, over the selected acquisition time) is “irreversible ligand-receptor binding”. In data set [2] (human, in vivo, iv), the “Blood pool clearance half-life” value is “about 10 min”. Besides, in data set [2] (in vivo), the “Time at which activity within aortic atheroma reaches plateau” value was in the range of 40 to 70 min. In addition, the “TBRmax range in aortic atheroma” value in data set [3] (40–70 min postinjection) is given as 1.08–1.68. Besides, in data set [3] (All patients, median (IQR)), the “Total aortic uptake (mean TBRmax), current smokers” value was found to be 1.32; the “Total aortic uptake (mean TBRmax), not current smokers” value is listed as 1.29 (1.19–1.39); the “Total aortic uptake (mean TBRmax), with established ischaemic heart disease” value is 1.34 (1.22–1.42); the “Total aortic uptake (mean TBRmax), with hypercholesterolaemia” value is on record as 1.34 (1.21–1.42). Moreover, in data set [3] (All patients, median (IQR)), the “Total aortic uptake (mean TBRmax), with hypertension” value is given as 1.33 (1.19–1.39); the “Total aortic uptake (mean TBRmax), without diabetes mellitus” value is listed as 1.29 (1.19–1.38); the “Total aortic uptake (mean TBRmax), without established ischaemic heart disease” value is on record as 1.25 (1.19–1.35); the “Total aortic uptake (mean TBRmax), without hypercholesterolaemia” value was 1.27 (1.19–1.34). Moreover, in data set [3] (All patients, median (IQR)), the “Total aortic uptake (mean TBRmax), without hypertension” value was 1.29 (1.20–1.40). In data set [3] (Stable cohort, median (IQR)), the “Total aortic uptake (mean TBRmax), with diabetes mellitus” value is 1.37 (1.28–1.58); the “Total aortic uptake (mean TBRmax), with established ischaemic heart disease” value is listed as 1.37 (1.37–1.42); the “Total aortic uptake (mean TBRmax), with hypercholesterolaemia” value turned out to be 1.36; the “Total aortic uptake (mean TBRmax), with hypertension” value is reported as 1.27 (1.21–1.38). For the same substance, in data set [3] (Stable cohort, median (IQR)), the “Total aortic uptake (mean TBRmax), without diabetes mellitus” value is recorded as 1.29 (1.19–1.37) and the “Total aortic uptake (mean TBRmax), without hypertension” value is on record as 1.33 (1.19–1.38). Besides, the “Aortic Arch (mean TBRmax)” value in data set [3] (Unstable atherosclerosis (n=19, recent MI), median (IQR)) was 1.29. In data set [3] (comparison p=0.08), the “TBRmax on standard analysis, subjects without visible uptake on Patlak analysis” value stood at 1.19±0.03. The “TBRmax on standard analysis, subjects with uptake present on Patlak analysis” value in data set [3] (n=7) amounted to 1.32±0.05.
For the substance fluciclatide [reference compound], the “Blocking of 18F-fluciclatide binding by un-labelled fluciclatide” value on αvβ3 integrin receptors (un-labelled highly concentrated solution added to compete at αvβ3) is given as “effectively blocked”.
